Counter-ions that a name gives are not always drawn. Like-named read-outs stand apart in the source and are kept apart here.
How the values were obtained:
PptT [1] = target: T1, PptT (Mycobacterium tuberculosis, UniProt O33336); experiment: LOPAC1280 single-point BpsA (indigoidine) end-point screen for PptT inhibitors; type: biochemical; conditions: for % Activity in PptT Screen / activity at 20 µM: single concentration (20 µM per Figure S4), 0.4 µM PptT, 0.6 µM apo-BpsA, 10 µM CoA, A590 relative to no-inhibitor positive controls
holo-BpsA = target: T2, holo-BpsA (Streptomyces lavendulae, UniProt Q1MWN4); experiment: Counter-screen against pre-activated holo-BpsA (indigoidine synthesis); type: biochemical; conditions: for Inhibition of holo-BpsA: re-screen at higher concentration of 40 µM; for inhibition at 40 µM: read-out: Inhibition of holo-BpsA; for Inhibition of indigoidine synthesis by holo-BpsA in LOPAC1280 counter-screen: 0.6 µM holo-BpsA, no PPTase, screening concentration
T2 construct: made in house; host or cells: E. coli BL21(DE3) ΔentD
T2 sequence (Q1MWN4 1-1282): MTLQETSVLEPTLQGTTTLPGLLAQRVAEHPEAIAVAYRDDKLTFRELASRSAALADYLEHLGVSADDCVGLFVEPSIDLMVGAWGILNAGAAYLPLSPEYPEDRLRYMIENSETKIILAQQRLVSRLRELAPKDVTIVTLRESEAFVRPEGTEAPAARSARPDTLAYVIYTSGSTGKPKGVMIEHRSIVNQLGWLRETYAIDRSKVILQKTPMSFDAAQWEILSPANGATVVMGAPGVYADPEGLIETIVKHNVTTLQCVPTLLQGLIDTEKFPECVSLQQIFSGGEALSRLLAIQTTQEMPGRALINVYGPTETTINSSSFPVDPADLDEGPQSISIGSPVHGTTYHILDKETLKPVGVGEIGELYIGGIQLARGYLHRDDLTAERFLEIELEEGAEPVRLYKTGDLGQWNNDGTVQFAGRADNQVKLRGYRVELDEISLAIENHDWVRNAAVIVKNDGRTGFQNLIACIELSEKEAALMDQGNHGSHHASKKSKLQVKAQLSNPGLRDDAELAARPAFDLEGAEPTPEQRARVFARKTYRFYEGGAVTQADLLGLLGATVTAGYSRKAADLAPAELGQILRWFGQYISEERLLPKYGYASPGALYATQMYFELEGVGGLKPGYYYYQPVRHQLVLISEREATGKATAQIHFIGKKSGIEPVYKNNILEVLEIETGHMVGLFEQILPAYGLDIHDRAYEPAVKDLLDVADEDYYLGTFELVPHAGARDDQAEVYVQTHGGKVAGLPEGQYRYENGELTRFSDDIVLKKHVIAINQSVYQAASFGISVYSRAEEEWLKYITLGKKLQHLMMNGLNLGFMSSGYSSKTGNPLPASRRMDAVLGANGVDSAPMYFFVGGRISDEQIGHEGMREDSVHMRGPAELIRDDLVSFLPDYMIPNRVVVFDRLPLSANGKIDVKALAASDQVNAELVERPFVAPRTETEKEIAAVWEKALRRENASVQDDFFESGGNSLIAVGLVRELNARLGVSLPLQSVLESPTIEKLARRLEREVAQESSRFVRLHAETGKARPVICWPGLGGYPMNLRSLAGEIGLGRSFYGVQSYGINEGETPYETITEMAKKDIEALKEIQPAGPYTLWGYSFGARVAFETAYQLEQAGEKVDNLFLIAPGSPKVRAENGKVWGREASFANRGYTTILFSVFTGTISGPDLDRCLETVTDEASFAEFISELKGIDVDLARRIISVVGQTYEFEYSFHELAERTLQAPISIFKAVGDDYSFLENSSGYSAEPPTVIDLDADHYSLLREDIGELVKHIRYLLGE
Experimental: The Sigma-Aldrich LOPAC^1280 collection was first diluted to a working stock of […] per compound. To screen the collection, 88 reactions at a time were established in columns 1–11 of a standard 96 well-plate. Each was prepared from 30 µL of reaction mix comprising 50 mM Tris-Cl (pH 8.0), 0.01% (v/v) Triton-X, 10 mM MgCl2, 5 mM ATP, 5 mM L-glutamine and 10 µM CoA. Next, a CyBio liquid handler was used to pin 2 µL of compound into columns 2–11 and 2 µL of DMSO into column 1. To screen for PptT inhibitors, 10 µL of PPTase mix comprising a freshly-prepared stock of 0.4 µM PptT and 50 mM Tris-Cl (pH 8.0) was added to wells A1–C1 and columns 2–11 (see Supplementary Figure S1). To initiate indigoidine synthesis, 10 µL of 0.6 µM apo-BpsA in 50 mM Tris-Cl (pH 8.0) was added to each well. To screen for holo-BpsA inhibitors, an equivalent screening format was established only using 0.6 µM holo-BpsA and with no PPTase mix added. Each plate was then shaken at 1000 rpm for 10 s and incubated at room temperature for 1 h. Indigoidine was then resolubilised by the addition of 200 µL DMSO and incubation at 37 °C with shaking at 200 rpm for 0.5 h. A Perkin Elmer Enspire plate reader was then used to record the absorbance readings at 590 nm. The Python package Pandas was used to process the data, which was then visualised using the Python package Seaborn.

SARS-CoV-2 protease = conditions: LOPAC1280 screen, FRET-based reporter; cited from earlier work
PptT [2] = target: T1, PptT; experiment: BpsA end-point dose-response assay of PptT inhibition (EC50); type: biochemical; conditions: for EC50: end-point assay, two-fold serial dilution from 40 µM, 0.4 µM PptT, 0.6 µM apo-BpsA, three independent replicates ± standard error
PptT [3] = target: T1, PptT; type: biochemical; conditions: kinetic assay, serial dilution 200 µM to 0.2 µM; 0.4 µM PptT, 0.6 µM apo-BpsA
PPTases = test system: PPTases; parameters: method as in PMID 20094656, PMID 21466506, PMID 33118808; conditions: cited from earlier work
Sfp = test system: Sfp; parameters: method as in PMID 24192555; conditions: cited from earlier work
M. tuberculosis PptT = test system: M. tuberculosis PptT; parameters: method as in PMID 24963544; conditions: cited from earlier work

T1 sequence (O33336 whole entry): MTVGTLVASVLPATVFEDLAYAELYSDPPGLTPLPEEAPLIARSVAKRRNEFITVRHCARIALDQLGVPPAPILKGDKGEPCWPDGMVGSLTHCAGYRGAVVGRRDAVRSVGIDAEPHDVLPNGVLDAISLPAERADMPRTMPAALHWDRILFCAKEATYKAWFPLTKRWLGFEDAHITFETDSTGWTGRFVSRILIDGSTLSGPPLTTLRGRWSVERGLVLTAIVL

| Compound | % Activity in PptT Screen (PptT [1]) | Hit as SARS-CoV-2 protease inhibitor (SARS-CoV-2 protease) | EC50 (PptT [2]) | other results |
| --- | --- | --- | --- | --- |
| NC(Cc1cc(O)c(O)cc1O)C(=O)O (racemic) [6-Hydroxy-DL-DOPA] | 26% | strong protease inhibitors |  | Inhibition of holo-BpsA (holo-BpsA): less than 15% |
| CCN(CC)C(=S)SSC(=S)N(CC)CC [Disulfiram] |  | strong protease inhibitors | 6 ± 1.5 µM | activity at 20 µM (PptT [1]): 9%; inhibition at 40 µM (holo-BpsA): < 15% |
| O=C(O)c1cc[c]([Hg][Cl])cc1 [4-chloromercuribenzoic acid] |  |  |  | Inhibition of indigoidine synthesis by holo-BpsA in LOPAC1280 counter-screen (holo-BpsA): inhibiting indigoidine synthesis |
| CN(C)CC/C=C1/c2ccccc2Sc2ccc(Cl)cc21 [chlorprothixene hydrochloride] |  |  |  | Registered as inhibitor of PptT in primary screen (result in words) (PptT [1]; LOPAC1280 primary screen): did not register as an inhibitor of PptT; Inhibition of indigoidine synthesis by holo-BpsA in LOPAC1280 counter-screen (holo-BpsA): inhibiting indigoidine synthesis |
| COc1ccc2c(c1)CC[C@@H]1[C@@H]2CC[C@]2(C)[C@@H](NCCCCCCN3C(=O)C=CC3=O)CC[C@@H]12 [U-73122] | 44% | strong protease inhibitors | 8.1 ± 0.5 µM |  |
| N#C/C(=C\c1ccc(O)c(O)c1)C(=O)c1ccc(O)c(O)c1 [Tyrphostin AG 538] | 24% |  | 6.4 ± 0.7 µM |  |
| CC(C)(C)c1ccc(S(=O)(=O)/C=C/C#N)cc1 [Bay 11-7085] | 10% | strong protease inhibitors | 7.4 ± 0.4 µM |  |
| O=c1c2ccccc2[se]n1-c1ccccc1 [ebselen] |  |  |  | Inhibition of indigoidine synthesis by holo-BpsA in LOPAC1280 counter-screen (holo-BpsA): inhibiting indigoidine synthesis |
| Br.CN=c1nc(-c2ccccc2)n(-c2ccccc2)s1 [SCH-202676 hydrobromide] | 0.7% |  | 5.9 ± 0.1 µM | Inhibition of holo-BpsA (holo-BpsA): noticeably inhibitory |
| N#C/C(=C\c1ccc(O)c(O)c1)C(=O)NCCCNC(=O)/C(C#N)=C/c1ccc(O)c(O)c1 [Tyrphostin AG 537] | 35% |  | 5.9 ± 0.5 µM |  |
| O=Nc1ccc2oc(=O)ccc2c1 [6-Nitroso-1,2-benzopyrone] | 12% | strong protease inhibitors | 8.3 ± 1.7 µM | EC50 (PptT [3]): 4.4 ± 1.2 µM; Inhibition of holo-BpsA (holo-BpsA): less than 15%; Activity in vitro against PPTases (PPTases): activity in vitro against numerous PPTases |
| C[n+]1cc2c3c(ccc2c2ccc4cc5c(cc4c21)OCO5)OCO3 [Sanguinarine chloride] |  | strong protease inhibitors |  | activity at 20 µM (PptT [1]): 44%; inhibition at 40 µM (holo-BpsA): < 15%; Reported as inhibitor of Sfp (Sfp): inhibitor; Reported as inhibitor of M. tuberculosis PptT (M. tuberculosis PptT): inhibitor |
| Nc1c(S(=O)(=O)O)cc(Nc2ccc(Nc3nc(Cl)nc(Nc4cccc(S(=O)(=O)O)c4)n3)c(S(=O)(=O)O)c2)c2c1C(=O)c1ccccc1C2=O [Reactive Blue 2] |  |  |  | activity at 20 µM (PptT [1]): 38% |
| O=C1Nc2ccc(I)cc2/C1=C/c1cc(Br)c(O)c(Br)c1 [GW5074] | 43% |  |  |  |
| N=C1Sc2ccccc2C2=NCCCN12 [PD 404, 182] | 35% | strong protease inhibitors |  |  |
| O=C(O)C1=CC(=C(c2ccc(O)c(C(=O)O)c2)c2ccc(O)c(C(=O)O)c2)C=CC1=O [Aurintricarboxylic acid] |  | strong protease inhibitors | 4.8 ± 0.9 µM | activity at 20 µM (PptT [1]): 32% |
| Br.CCCN(CCC)C1CCc2cccc(O)c2C1 (stereo not shown) [8-hydroxy-DPAT hydrobromide] |  |  |  | Inhibitory activity on PptT in serial dilution (result in words) (PptT [2]; two-fold serial dilutions (40 µM to 0.3 µM) in PptT/apo-BpsA reaction mix): no inhibitory activity was observed |
| CC(=O)c1c(O)c(C)c(O)c(Cc2c(O)c3c(c(C(=O)/C=C/c4ccccc4)c2O)OC(C)(C)C=C3)c1O [Rottlerin] |  |  |  | activity at 20 µM (PptT [1]): 48% |
| Cc1ccc(C(=O)Nc2ccc(S(=O)(=O)O)c3cc(S(=O)(=O)O)cc(S(=O)(=O)O)c23)cc1NC(=O)c1cccc(NC(=O)Nc2cccc(C(=O)Nc3cc(C(=O)Nc4ccc(S(=O)(=O)O)c5cc(S(=O)(=O)O)cc(S(=O)(=O)O)c45)ccc3C)c2)c1 [suramin hexasodium] |  |  |  | Inhibition of indigoidine synthesis by holo-BpsA in LOPAC1280 counter-screen (holo-BpsA): inhibiting indigoidine synthesis |
| COc1cc(/C=C(\C#N)C(=O)c2ccc(O)c(O)c2)cc(I)c1O [I-OMe-Tyrphostin AG 538] | 40% |  |  |  |
| Tyrphostin AG 808 | 34% |  |  |  |
| CCCCCCCCCCC/C=C\C(C)(C)/C=C\CCCC(=O)O [7,7-Dimethyl-(5z,8z)-eicosadienoic acid] | 49% |  |  | Inhibition of holo-BpsA (holo-BpsA): less than 15% |

Reference: article PMC8309046 (Pharmaceutics, 2021)
